Assay results as given in patent EP4813989A1, “CRYSTAL, PHARMACEUTICAL COMPOSITION, PREPARATION METHOD THEREFOR, AND USE THEREOF” (TYK Medicines, Inc., priority 2023, dated 2025).

Columns and labels:
Format in all cases: physicochemical
[1] = Solid form stability on standing (XRD/PLM)
Excerpt: The resulting solid sample was subjected to a corresponding characterization test. An XRD pattern of the sample can be seen in FIG. 8.
A crystal form E sample was obtained by suspending and stirring the amorphous sample prepared in Example 2 in a 1,4-dioxane/n-heptane solvent system at room temperature. XRD results of the sample can be seen in FIG. 9. […] On this basis, it was inferred that the crystal form E was a metastable crystal form.
XRD results of the sample can be seen in FIG. 17.
XRD results of the sample can be seen in FIG. 20. TGA/DSC results can be seen in FIG. 21. […] An ^1H NMR spectrum of the crystal form D was obtained by a test in DMSO-d6, and no obvious solvent residue was observed. […] Based on nuclear magnetic resonance data and heating test results of the sample, it was inferred that the crystal form D was a hydrate crystal form.

[2] = High-temperature test, related substances by HPLC; conditions: for Increase of impurity RRT0.66 content / Increase of impurity RRT1.02 content / Increase of impurity RRT1.08 content / Increase of total impurities / Impurity content RRT0.55 / Impurity content RRT0.66 / Impurity content RRT0.71 / Impurity content RRT0.94 / Impurity content RRT1.02 / Impurity content RRT1.06 / Impurity content RRT1.08 / Impurity content RRT1.15 / Total impurities: 50°C±2°C; for Impurity content RRT0.55 / Impurity content RRT0.66 / Impurity content RRT0.71 / Impurity content RRT0.94 / Impurity content RRT1.02 / Impurity content RRT1.06 / Impurity content RRT1.08 / Impurity content RRT1.15 / Total impurities: open
Experimental: An investigation method for the high-temperature test can be seen in Table 11 below.
Results of related substances in each crystal form under the high-temperature condition (50°C±2°C) can be seen in Table 15.
HPLC detection results of related substances under the high-temperature condition: Table 15

[3] = Approximate solubility in organic solvents at room temperature

## C[C@@H](Nc1ccn2ncc(C3=NOC(C)(C)N3)c2n1)c1cc(F)cc(F)c1F [amorphous form]
[1]; ambient conditions (room temperature, >20%RH), overnight plus two days
  Solid form stability: unstable under ambient conditions

## C[C@@H](Nc1ccn2ncc(C3=NOC(C)(C)N3)c2n1)c1cc(F)cc(F)c1F [crystal form A]
[2]; 32 days
  Increase of impurity RRT0.66 content: ≤ 0.02%
  Increase of impurity RRT1.02 content: no obvious change
  Increase of impurity RRT1.08 content: 0.05%
  Increase of total impurities: 0.16%
  Impurity content RRT0.55: 0.05%
  Impurity content RRT0.66: 0.20%
  Impurity content RRT0.71: 0.17%
  Impurity content RRT0.94: 0.05%
  Impurity content RRT1.02: 0.30%
  Impurity content RRT1.06: 0.08%
  Impurity content RRT1.08: 0.21%
  Impurity content RRT1.15: 0.05%
  Total impurities: 1.11%
[2]; 0 day
  Impurity content RRT0.55: 0.03%
  Impurity content RRT0.66: 0.18%
  Impurity content RRT0.71: 0.15%
  Impurity content RRT0.94: 0.04%
  Impurity content RRT1.02: 0.28%
  Impurity content RRT1.06: 0.07%
  Impurity content RRT1.08: 0.16%
  Impurity content RRT1.15: 0.03%
  Total impurities: 0.95%
[2]; 5 days
  Impurity content RRT0.55: 0.03%
  Impurity content RRT0.66: 0.19%
  Impurity content RRT0.71: 0.16%
  Impurity content RRT0.94: 0.04%
  Impurity content RRT1.02: 0.31%
  Impurity content RRT1.06: 0.08%
  Impurity content RRT1.08: 0.19%
  Impurity content RRT1.15: 0.03%
  Total impurities: 1.03%
[2]; 11 days
  Impurity content RRT0.55: 0.03%
  Impurity content RRT0.66: 0.19%
  Impurity content RRT0.71: 0.16%
  Impurity content RRT0.94: 0.03%
  Impurity content RRT1.02: 0.30%
  Impurity content RRT1.06: 0.08%
  Impurity content RRT1.08: 0.22%
  Impurity content RRT1.15: 0.03%
  Total impurities: 1.04%
[2]; compared with crystal form E and amorphous form, all four stress tests
  Overall stability (conclusion): the most stable crystal form
[3]; Acetone
  solubility: > 40 mg/mL
[3]; Acetonitrile
  solubility: > 44 mg/mL
[3]; Dichloromethane
  solubility: > 40 mg/mL
[3]; Ethanol
  solubility: > 38 mg/mL
[3]; Ethyl acetate
  solubility: > 44 mg/mL
[3]; Isopropanol
  solubility: > 42 mg/mL
[3]; Isopropyl acetate
  solubility: > 38 mg/mL
[3]; Methanol
  solubility: > 36 mg/mL
[3]; Methyl isobutyl ketone
  solubility: > 40 mg/mL
[3]; Trichloromethane
  solubility: > 44 mg/mL

## C[C@@H](Nc1ccn2ncc(C3=NOC(C)(C)N3)c2n1)c1cc(F)cc(F)c1F [crystal form E]
[2]; 32 days
  Increase of impurity RRT0.66 content: 0.05%
  Increase of impurity RRT1.02 content: 0.19%
  Increase of impurity RRT1.08 content: 0.23%
  Increase of total impurities: 0.51%
  Impurity content RRT0.55: 0.04%
  Impurity content RRT0.66: 0.26%
  Impurity content RRT0.71: 0.14%
  Impurity content RRT0.94: 0.05%
  Impurity content RRT1.02: 0.40%
  Impurity content RRT1.06: 0.05%
  Impurity content RRT1.08: 0.40%
  Impurity content RRT1.15: 0.05%
  Total impurities: 1.40%
[2]; 0 day
  Impurity content RRT0.55: 0.04%
  Impurity content RRT0.66: 0.21%
  Impurity content RRT0.71: 0.14%
  Impurity content RRT0.94: 0.03%
  Impurity content RRT1.02: 0.21%
  Impurity content RRT1.06: 0.07%
  Impurity content RRT1.08: 0.17%
  Impurity content RRT1.15: 0.03%
  Total impurities: 0.89%
[2]; 5 days
  Impurity content RRT0.55: 0.03%
  Impurity content RRT0.66: 0.22%
  Impurity content RRT0.71: 0.15%
  Impurity content RRT0.94: 0.03%
  Impurity content RRT1.02: 0.27%
  Impurity content RRT1.06: 0.05%
  Impurity content RRT1.08: 0.24%
  Impurity content RRT1.15: 0.03%
  Total impurities: 1.03%
[2]; 11 days
  Impurity content RRT0.55: 0.04%
  Impurity content RRT0.66: 0.22%
  Impurity content RRT0.71: 0.13%
  Impurity content RRT0.94: 0.03%
  Impurity content RRT1.02: 0.30%
  Impurity content RRT1.06: 0.06%
  Impurity content RRT1.08: 0.29%
  Impurity content RRT1.15: 0.03%
  Total impurities: 1.10%
[1]; air-dried, open storage at room temperature, approximately 1 day
  Solid form stability: transformed into the crystal form A
